Experimental data taken from PMC5561046, “Cytochrome P450/ABC transporter inhibition simultaneously enhances ivermectin pharmacokinetics in the mammal host and pharmacodynamics in Anopheles gambiae” (Scientific Reports, 2017).
Several values for one entry are separate records, joined by “and”; a condition that tells them apart may be missing. Identical values can stand only once. Entries after “also recorded” stand apart in the source; their conditions may differ.

Tests used:
[1] = Clinical observation of mini-pigs for adverse events / ivermectin toxicity signs; format: in vivo, mini-pig; details: oral ivermectin 800 mcg/kg with or without ketoconazole or rifampicin pre-treatment
Experimental: Six hybrid mini-pigs (2 male, 4 female) weighing between 46 and 70 kg were procured from our accredited breeding centre at the University of Navarra. They were housed individually throughout the study at the animal research facilities in the University of Navarra. From arrival onward, the animals were assessed daily for general wellbeing and after the intervention, also for specific ivermectin toxicity signs.

[2] = minipig, in vivo
Experimental: (§1) The experiments were conducted following a randomised crossover design (Fig. 1). In phase I all mini-pigs received a single 800 mcg/kg dose of oral ivermectin and sampling was done as described below. […] The total wash-out period between ivermectin doses was 30 days. […] Inhibiting the P-gp could theoretically lead to toxicity due to abnormal accumulation of the drug in the brain[30], [31]. […] Irrespectively of this, drug quantification in cerebrospinal fluid (CSF) was added as an additional safety point. Rifampicin a CYP/P-gp inducer[49] was included as we expected to see reduced bioavailability and penetration into CSF.
For obtaining CSF samples during the first 8 hours, an intrathecal catheter was placed by means of fluoroscopy-guided lateral lumbar puncture[81] (Fig. 5). Given the challenges posed by the particular anatomy of the pig, efforts were done to tunnel the intrathecal catheter and connect it to a subcutaneous reservoir in order to avoid repeating the technically demanding lumbar puncture during phase II of the study (Fig. 5). […] Sampling points for CSF were: pre-treatment and at 0.5, 1, 2, 3, 4, 5, 6, 7 and 8 hours. […]
(§2) Ivermectin levels in plasma and CSF were determined using a validated adaptation of a previously described HPLC-FLD[82]. The detection limit in plasma and CSF was 0.1 ng/ml, the quantification limit was 0.5 ng/ml.

[3] = system: Anopheles gambiae; assay: Synergistic mosquito bioassay: membrane feeding with mini-pig serum samples, mortality follow-up; format: in vivo, Anopheles gambiae s.s.; details: for Mean survival / Time to median mortality: Anopheles gambiae, membrane feeding
Experimental: Mosquitoes were membrane fed with reconstituted blood as described by Bousema et al.[51].
Since mosquitoes grouped in cups for feeding, we used a cluster design in which the unit of intervention was mosquito cups. Our primary outcome was mean 10-day mosquito mortality after membrane feeding. Sample size calculations were conducted according to the method described by Gangnon and Kosorok[52]. The minimum expected 10-day mortality in mosquitoes imbibing blood containing 9.9 ng/ml of ivermectin is 66%; this is based on the predictive function described by Ouedraogo et al.[50]. Based on previous observations and with all mosquitoes having the same colony origin and age range, we chose a conservative intracluster correlation of 0.15. The frailty variance of clusters was resembled by a gamma of 1. All experiments were performed in triplicate. With these parameters, at least 4 clusters of 44 mosquitoes were needed per arm to achieve 80% power at 5% significance level accounting for 10% non-feeders.
Baseline serum samples collected before ivermectin treatment in ketoconazole and naïve pigs were used as controls. These samples were shipped frozen to the insectary facilities of the Ifakara Health Institute in Bagamoyo, Tanzania for membrane feeding assays. It was hypothesised that induction of the mosquito CYP/P-gp by rifampicin could improve survival in presence of ivermectin, but this could not be tested due to a reduced absorption of ivermectin in the mini-pigs pre-treated with rifampicin (see below).
For all experiments, we used the fully susceptible Anopheles gambiae s.s. colony maintained at the insectary in Bagamoyo. Mosquitoes were reared at 28 °C, 80% humidity and with a photoperiod of 12:12. Larvae were kept in large plastic bowls covered with netting containing approximately 2 litres of water with larval densities not exceeding one 4th instar larvae per ml. Larvae were fed Tetramine fish flakes ad libitum. Once they developed into pupae these were collected using disposable plastic Pasteur pipettes and transferred to small bowls containing approximately 200 ml of clean water. The pupae bowls were then placed inside fully screened cages (30 × 30 × 30 cm) where adult mosquitoes were allowed to emerge and given 10% glucose as a sugar source ad libitum.
Only mosquitoes of 2–5 days of age were used for the experiments. Before the experiments, mosquitoes were starved from sugar for 12–18 hours and from water for one hour. Hungry females were selected by applying a bottle with heated water (37–40 °C) to the cage. 40–50 hungry females were transferred to each paper cup using a mouth aspirator.
We performed membrane feeding assays with serum replacement as previously described. For each experiment, the selected pig sample was thawed and 1 ml of whole blood was centrifuged at 2100 rpm for 10 minutes. The serum volume was noted and replaced with the same amount of the sample pig-serum being tested. After this, tubes were inverted 10 times. Each sample was tested in triplicate.
In order to reduce potential confounding arising from variations in bloodmeal size, partially fed mosquitoes were discarded and only fully engorged females followed up for the mortality assessment. After each feeding experiment, the cups were placed on ice for 1–2 minutes to select and transfer fully engorged females.
Cups with fully engorged mosquitoes were kept at 24–26 °C and 65–70% relative humidity inside climate controlled incubators. Mosquitoes were maintained with 10% glucose solution using impregnated cotton. Mortality was recorded daily for 9 days by a person blinded to the allocation of the cups. Dead mosquitoes were removed from the cups daily.
Survival Kaplan-Meier analysis was performed in Addinsoft’s XLSTAT ® Version 2016.04.32229 (New York, NY, USA). Comparisons of survival patterns were done with Log-rank test using a 5% significance level adjusted for cluster design.

[4] = cited from earlier work
[5] = Drug-drug interaction study: ivermectin plasma pharmacokinetics in mini-pigs; details: for AUC inf, Median (Range) / Cmax, Median (Range) / AUC > LD50, Median (Range) / Time > LD50, Median (Range): group median (range); for AUC inf, Median (Range) / Cmax, Median (Range): plasma ivermectin, single oral 800 mcg/kg; for AUC inf, Median (Range) / Cmax, Median (Range) / AUC > LD50, Median (Range) / Time > LD50, Median (Range) / Time > LD50: treatment group as in the label; for AUC > LD50, Median (Range): area under the plasma ivermectin curve above 6 ng/ml; for AUC > LD50, Median (Range) / Time > LD50, Median (Range) / Time > LD50: oral 800 mcg/kg; for Time > LD50, Median (Range): time plasma ivermectin is above 6 ng/ml; for Time > LD50: individual mini-pig, time plasma ivermectin is above 6 ng/ml (10-day LC50 for Anopheles gambiae)
Experimental: as §1
The pre-medication drugs were administered by crushing the tablets and mixing them with canned meat products used for enrichment. For ivermectin administration and sampling during the first 8 hours, the animals were sedated with a single intramuscular dose of tiletamine-zolazepan (4 mg/kg) and maintained with inhalatory isoflurane (1.5–2%). In pigs, there is no evidence of a significant interaction (other than being a substrate) of these drug classes with the CYP3A4 or the P-gp[80]. Ivermectin was administered via nasogastric tube.
For blood sampling during the first eight hours, a femoral line was left in place and later removed during recovery from anaesthesia. Blood sampling thereafter was done by jugular puncture under restrain. […] For the mosquito bioassay, additional serum samples were obtained at every time point, and frozen at −20 °C.
Blood samples were drawn in 3 ml EDTA tubes and centrifuged. Plasma was separated and frozen at −20 °C until analysis. CSF samples were frozen at −20 °C.
as §2
Pharmacokinetic analyses were performed using Phoenix WinNonlin 6.4 (Certara, Princeton, NJ, USA). Pharmacokinetic parameters were derived from non-compartmental analyses.
The comparison of PK parameters between ivermectin groups was done by means of a two-sided Mann-Whitney test.

[6] = system: Anopheles gambiae; parameters: method as in PMID 25414262; details: cited from earlier work
[7] = system: CYP 3A4; parameters: method as in PMID 19255936; details: estimated; cited from earlier work
[8] = Pair 1: ivermectin 9.98 (IVM) vs 8.96 (KET) ng/ml in the fed sample
[9] = Pair 2: ivermectin 16.5 (IVM) vs 17.23 (KET) ng/ml in the fed sample
[10] = Pair 3: ivermectin 20.46 (IVM) vs 20.39 (KET) ng/ml in the fed sample
[11] = Pair 4: ivermectin 27.58 (IVM) vs […] (KET) ng/ml in the fed sample

CCC(C)C1OC2(CCC1C)CC1CC(CC=C(C)C(OC3CC(OC)C(OC4CC(OC)C(O)C(C)O4)C(C)O3)C(C)C=CC=C3COC4C(O)C(C)=CC(C(=O)O1)C34O)O2 (stereo not shown) [Ivermectin]
clinical adverse events [1]: No clinical adverse events were observed
ivermectin concentration in CSF [2]: < 0.5 ng/mL
number of CSF samples in which ivermectin was detectable [2]: 4
Mean survival [3, 8]: 6.73 (6.29–7.17) days
Time to median mortality [3, 8]: 7 days
Mean survival [3, 9]: 5.11 (4.63–5.86) days
Time to median mortality [3, 9]: 5 days
Mean survival [3, 10]: 7.43 (7.11–7.75) days
Time to median mortality [3, 10]: 7 days
Mean survival [3, 11]: 5.28 (4.54–6.02) days
Time to median mortality [3, 11]: 5 days
time for which concentrations that kill 50% of Anopheles gambiae in 10 days are sustained ([4]; after the single dose of 200 mcg/kg commonly used for NTDs, no reference given): around 72 hours
half-life [4]: 18 h
AUC inf, Median (Range) ([5]; listed as Ivermectin 1): 244 (1899) h·ng/mL
Cmax, Median (Range) ([5]; listed as Ivermectin 1): 8.7 (26.0) ng/mL
AUC inf, Median (Range) ([5]; listed as Ivermectin 2): 1205.3 (349) h·ng/mL
Cmax, Median (Range) ([5]; listed as Ivermectin 2): 18 (5.6) ng/mL
AUC inf, Median (Range) ([5]; listed as Ivermectin(combined)): 862.7 (1899) h·ng/mL
AUC > LD50, Median (Range) ([5]; listed as Ivermectin 1): 23.7 (509.4) h·g/mL
AUC > LD50, Median (Range) ([5]; listed as Ivermectin 2): 297.6 (142.6) h·g/mL
Time > LD50, Median (Range) ([5]; listed as Ivermectin 1): 4.6 (46.7) h
Time > LD50, Median (Range) ([5]; listed as Ivermectin 2): 49.9 (9.1) h
Time > LD50 ([5]; listed as Ivermectin 1): 9.3 h
Time > LD50 ([5]; listed as Ivermectin 2): 54.5 h and 45.4 h
Time > LD50 ([5]; listed as Ivermectin(combined)): 46.7 h and 27.2 h and 0.0 h
increase in ivermectin time above LC50 ([5]; ketoconazole pre-treatment vs ivermectin alone, mini-pigs): 3 fold
median Cmax ([5]; plasma ivermectin in mini-pigs, ivermectin alone (combined) vs ketoconazole pre-treatment, P = 0.033): 14 ng/mL
total AUC ([5]; plasma ivermectin in mini-pigs, ivermectin alone (combined) vs ketoconazole pre-treatment, P = 0.067, not significant): 862 ng·h/mL
10-day lethal concentration 50 (LC50) ([6]; kills 50% of Anopheles gambiae in 10 days): 6 ng/ml
minimum expected 10-day mortality ([6]; mosquitoes imbibing blood containing 9.9 ng/ml of ivermectin, from predictive function): 66%

CC(=O)N1CCN(c2ccc(OCC3COC(Cn4ccnc4)(c4ccc(Cl)cc4Cl)O3)cc2)CC1 (stereo not shown) [ketoconazole]
effect on mortality of Anopheles gambiae fed samples containing ivermectin ([3]; ketoconazole at CYP inhibition concentrations, matched ivermectin concentrations (+/−1 ng/ml), all four pairs): significantly increased the mortality
effect on 10-day mortality of Anopheles gambiae ([3]; ketoconazole-only baseline pig sample vs fully drug-free sample, Log-rank P = 0.048, n = 222): did not increase the mortality

CO[C@H]1/C=C/O[C@@]2(C)Oc3c(C)c(O)c4c(O)c(c(/C=N/N5CCN(C)CC5)c(O)c4c3C2=O)NC(=O)/C(C)=C\C=C\[C@H](C)[C@H](O)[C@@H](C)[C@@H](O)[C@@H](C)[C@H](OC(C)=O)[C@@H]1C [rifampicin, Rifampicin]
effect of pre-treatment on ivermectin absorption ([5]; rifampicin pre-treatment (CYP/P-gp induction), mini-pigs, oral ivermectin 800 mcg/kg): markedly impaired ivermectin absorption; also recorded: seriously hampered ivermectin absorption
